Source: US20120207753A1, “METHODS OF USING CD44 FUSION PROTEINS TO TREAT CANCER” (CENTRE HOSPITALIER UNIVERSITAIRE VAUDOIS, priority 2009, published 2012)

What was measured:
[1] = tested on: U87MG cells; test: Intracranial tumor growth and survival, transduced U87MG cells in Rag-1 mice; type: in vivo, human; settings: single dose BCNU 10 mg/kg iv or TMZ 5 mg/kg ip
Experimental: (§1) FIG. 12. Antagonists of CD44 are effective therapeutic agents against human GBM in mouse models. A, U87MG and U251 cells were transduced with the retroviruses carrying empty vector and the expression constructs of hsCD44s-Fc, hsCD44v8-v10-Fc, and hsCD44v3-v10 and their serum free cell culture supernatants were collected and analyzed on Western blots using anti-CD44 antibody (Santa Cruz) or anti-human IgG antibody. The molecular weight bars correspond to 199 kDa and 116 kDa. B, 2×10^6 of the transduced U87MG and U251 cells were injected subcutaneously per mouse. Growth rates of the subcutaneous tumors were determined and expressed as the mean of tumor volume (mm^3)+/−SD. Six mice were used for each construct. C, Survival rates of mice following the intracranial injections of transduced U87MG (C-a) and U251 (C-b-c) cells infected with the retroviruses carrying the empty expression vectors, hsCD44s-Fc, hsCD44v8-v10-Fc, hsCD44v3-v10, hsCD44sR41A-Fc, or hsCD44v3-v10R41A-Fc constructs as indicated in the panels. […]
(§2) Mice were used in accordance with the approved IACUC Protocol. […] Following injection, mice were closely monitored and the duration of their survival was recorded. […] Number of surviving mice was recorded. The survival rates were calculated as follows: survival rate (%)=(number of mice still alive/total number of experimental mice)×100%. […]

[2] = tested on: U251 cells; test: Intracranial tumor growth and survival, transduced U251 cells in Rag-1 mice; type: in vivo, human; settings: single dose BCNU 10 mg/kg iv or TMZ 5 mg/kg ip
Experimental: as §1, §2

For `O=NN(CCCl)C(=O)NCCCl` [BCNU, carmustine], the “inhibition of intracranial glioma formation (median survival), drug combined with CD44 knockdown” value ([1]; intracranial U87MG-Luc depleted of CD44) was “synergistic inhibition of intracranial glioma formation”, the “inhibitory effect on glioma growth as single agent” value ([1]; intracranial U87MG-Luc) was “weak” and the “inhibition of intracranial glioma formation (median survival), drug combined with CD44 knockdown” value ([2]; intracranial U251-Luc depleted of CD44) was “synergistic inhibition of intracranial glioma formation”. For the same molecule, the “inhibitory effect on glioma growth as single agent” value ([2]; intracranial U251-Luc) was “weak”.
